{"source": "ChEMBL document CHEMBL1201862", "about": "“PubChem BioAssay data set” (2004)", "test_in_all_cases": "NCI tumour cell line growth inhibition, 48 h", "key": {"786-0": {"system": "786-0"}, "A498": {"system": "A498"}, "A549": {"system": "A549"}, "ACHN": {"system": "ACHN"}, "BT-549": {"system": "BT-549"}, "CAKI-1": {"system": "CAKI-1"}, "CCRF-CEM": {"system": "CCRF-CEM"}, "COLO 205": {"system": "COLO 205"}, "DU-145": {"system": "DU-145"}, "EKVX": {"system": "EKVX"}, "HCC 2998": {"system": "HCC 2998"}, "HCT-116": {"system": "HCT-116"}, "HCT-15": {"system": "HCT-15"}, "HL-60": {"system": "HL-60"}, "HOP-62": {"system": "HOP-62"}, "HOP-92": {"system": "HOP-92"}, "HT-29": {"system": "HT-29"}, "Hs-578T": {"system": "Hs-578T"}, "IGROV-1": {"system": "IGROV-1"}, "K562": {"system": "K562"}, "KM12": {"system": "KM12"}, "LOX IMVI": {"system": "LOX IMVI"}, "M14": {"system": "M14"}, "MCF7": {"system": "MCF7"}, "MDA-MB-231": {"system": "MDA-MB-231"}, "MDA-MB-435": {"system": "MDA-MB-435"}, "MDA-N": {"system": "MDA-N"}, "MOLT-4": {"system": "MOLT-4"}, "Malme-3M": {"system": "Malme-3M"}, "NCI-H226": {"system": "NCI-H226"}, "NCI-H23": {"system": "NCI-H23"}, "NCI-H460": {"system": "NCI-H460"}, "NCI-H522": {"system": "NCI-H522"}, "NCI/ADR-RES": {"system": "NCI/ADR-RES"}, "OVCAR-3": {"system": "OVCAR-3"}, "OVCAR-4": {"system": "OVCAR-4"}, "OVCAR-5": {"system": "OVCAR-5"}, "OVCAR-8": {"system": "OVCAR-8"}, "PC-3": {"system": "PC-3"}, "RPMI-8226": {"system": "RPMI-8226"}, "RXF 393": {"system": "RXF 393"}, "SF-268": {"system": "SF-268"}, "SF-295": {"system": "SF-295"}, "SF-539": {"system": "SF-539"}, "SK-MEL-28": {"system": "SK-MEL-28"}, "SK-MEL-2": {"system": "SK-MEL-2"}, "SK-MEL-5": {"system": "SK-MEL-5"}, "SK-OV-3": {"system": "SK-OV-3"}, "SN12C": {"system": "SN12C"}, "SNB-19": {"system": "SNB-19"}, "SNB-75": {"system": "SNB-75"}, "SR": {"system": "SR"}, "SW-620": {"system": "SW-620"}, "T47D": {"system": "T47D"}, "TK-10": {"system": "TK-10"}, "U-251": {"system": "U-251"}, "UACC-257": {"system": "UACC-257"}, "UACC-62": {"system": "UACC-62"}, "UO-31": {"system": "UO-31"}}, "note": "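Growth conditions: 96-well plates. Treatment: test compound, 48 hours, 5 concentrations. Analysis: linear interpolation between bracketing concentrations; unreached endpoints set to highest concentration. At the GI50, growth is halved.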 Activity calls are given as the source filed them. Cut-off read from the data, not from the text of the source: active = GI50 up to about 1.1 µM and inactive = higher.", "data": [{"smiles": "C(=C\\c1nccs1)/c1cccc(/C=C/c2nccs2)n1", "values": [{"measurement": "GI50", "setting": "786-0", "value": "> 50 µM (inactive)"}, {"measurement": "GI50", "setting": "A498", "value": "> 50 µM (inactive)"}, {"measurement": "GI50", "setting": "A549", "value": "> 50 µM (inactive)"}, {"measurement": "GI50", "setting": "ACHN", "value": "> 50 µM (inactive)"}, {"measurement": "GI50", "setting": "BT-549", "value": "> 50 µM (inactive)"}, {"measurement": "GI50", "setting": "CAKI-1", "value": "> 50 µM (inactive)"}, {"measurement": "GI50", "setting": "CCRF-CEM", "value": "> 50 µM (inactive)"}, {"measurement": "GI50", "setting": "COLO 205", "value": "> 50 µM (inactive)"}, {"measurement": "GI50", "setting": "DU-145", "value": "> 50 µM (inactive)"}, {"measurement": "GI50", "setting": "EKVX", "value": "49 µM (inactive)"}, {"measurement": "GI50", "setting": "HCC 2998", "value": "27.7 µM (inactive)"}, {"measurement": "GI50", "setting": "HCT-116", "value": "> 50 µM (inactive)"}, {"measurement": "GI50", "setting": "HCT-15", "value": "> 50", "unit": "µM"}, {"measurement": "GI50", "setting": "HL-60", "value": "> 50 µM (inactive)"}, {"measurement": "GI50", "setting": "HOP-62", "value": "> 50 µM (inactive)"}, {"measurement": "GI50", "setting": "HOP-92", "value": "> 50 µM (inactive)"}, {"measurement": "GI50", "setting": "HT-29", "value": "> 50 µM (inactive)"}, {"measurement": "GI50", "setting": "Hs-578T", "value": "> 50 µM (inactive)"}, {"measurement": "GI50", "setting": "IGROV-1", "value": "26.5 µM (inactive)"}, {"measurement": "GI50", "setting": "K562", "value": "> 50 µM (inactive)"}, {"measurement": "GI50", "setting": "KM12", "value": "> 50 µM (inactive)"}, {"measurement": "GI50", "setting": "LOX IMVI", "value": "> 50 µM (inactive)"}, {"measurement": "GI50", "setting": "M14", "value": "> 50 µM (inactive)"}, {"measurement": "GI50", "setting": "MCF7", "value": "18.8 µM (inactive)"}, {"measurement": "GI50", "setting": "MDA-MB-231", "value": "> 50 µM (inactive)"}, {"measurement": "GI50", "setting": "MDA-MB-435", "value": "> 50 µM (inactive)"}, {"measurement": "GI50", "setting": "MDA-N", "value": "> 50 µM (inactive)"}, {"measurement": "GI50", "setting": "MOLT-4", "value": "38.4 µM (inactive)"}, {"measurement": "GI50", "setting": "Malme-3M", "value": "> 50 µM (inactive)"}, {"measurement": "GI50", "setting": "NCI-H226", "value": "> 50 µM (inactive)"}, {"measurement": "GI50", "setting": "NCI-H23", "value": "> 50 µM (inactive)"}, {"measurement": "GI50", "setting": "NCI-H460", "value": "> 50 µM (inactive)"}, {"measurement": "GI50", "setting": "NCI-H522", "value": "> 50 µM (inactive)"}, {"measurement": "GI50", "setting": "NCI/ADR-RES", "value": "> 50 µM (inactive)"}, {"measurement": "GI50", "setting": "OVCAR-3", "value": "> 50 µM (inactive)"}, {"measurement": "GI50", "setting": "OVCAR-4", "value": "> 50 µM (inactive)"}, {"measurement": "GI50", "setting": "OVCAR-5", "value": "> 50 µM (inactive)"}, {"measurement": "GI50", "setting": "OVCAR-8", "value": "47.9 µM (inactive)"}, {"measurement": "GI50", "setting": "PC-3", "value": "> 50 µM (inactive)"}, {"measurement": "GI50", "setting": "RPMI-8226", "value": "> 50 µM (inactive)"}, {"measurement": "GI50", "setting": "RXF 393", "value": "> 50 µM (inactive)"}, {"measurement": "GI50", "setting": "SF-268", "value": "> 50 µM (inactive)"}, {"measurement": "GI50", "setting": "SF-295", "value": "> 50 µM (inactive)"}, {"measurement": "GI50", "setting": "SF-539", "value": "> 50 µM (inactive)"}, {"measurement": "GI50", "setting": "SK-MEL-28", "value": "> 50 µM (inactive)"}, {"measurement": "GI50", "setting": "SK-MEL-2", "value": "> 50 µM (inactive)"}, {"measurement": "GI50", "setting": "SK-MEL-5", "value": "> 50 µM (inactive)"}, {"measurement": "GI50", "setting": "SK-OV-3", "value": "> 50 µM (inactive)"}, {"measurement": "GI50", "setting": "SN12C", "value": "> 50 µM (inactive)"}, {"measurement": "GI50", "setting": "SNB-19", "value": "> 50 µM (inactive)"}, {"measurement": "GI50", "setting": "SNB-75", "value": "22 µM (inactive)"}, {"measurement": "GI50", "setting": "SR", "value": "> 50 µM (inactive)"}, {"measurement": "GI50", "setting": "SW-620", "value": "> 50 µM (inactive)"}, {"measurement": "GI50", "setting": "T47D", "value": "31.2 µM (inactive)"}, {"measurement": "GI50", "setting": "TK-10", "value": "> 50 µM (inactive)"}, {"measurement": "GI50", "setting": "U-251", "value": "34.8 µM (inactive)"}, {"measurement": "GI50", "setting": "UACC-257", "value": "> 50 µM (inactive)"}, {"measurement": "GI50", "setting": "UACC-62", "value": "> 50 µM (inactive)"}, {"measurement": "GI50", "setting": "UO-31", "value": "> 50 µM (inactive)"}]}]}
